# Where two headings read alike, the source gives them in different places.
# What was measured:
# [1] = Stability of the same analytes in serum samples, with and without 5% DMSO (Table 3); type: physicochemical
# Text: Table 3 is a test corresponding to the test of Table 2, but where the ten samples to be tested were serum samples rather than plasma samples.
# [2] = Storage stability of analytes in serum sample without stabilizer (background statement); type: physicochemical; conditions: serum sample
# Text: In connection with said determinations and sample handling the poor stability of gastrin-17 has proven to be a problem, due to the fact that it decomposes rapidly in the sample. […] This is in contrast to pepsinogen I and II, which retain their activity at room temperature for many days, and Helicobacter pylori antibodies, which survive for at least three days under refrigerator conditions.
# [3] = Preservation of gastrin-17 in 5% DMSO/serum or plasma solutions; type: physicochemical; conditions: 5% (vol./vol.) DMSO/serum or plasma solutions, even at room temperature
# [4] = for gastrin-17 concentration, Avg.: average of days 0-3
# [5] = room temperature
# Method: The effect of adding DMSO was tested on pepsinogen I, pepsinogen II, Helicobacter pylori antibodies and gastrin-17. The results are indicated at day 0 and day 3.
substance,measurement,setting,value
gastrin-17 [Gastrin 17],Gastrin 17 concentration,"[1]; serum sample PL411s, 0% DMSO",33.4 pmol/L
same,Gastrin 17 concentration,"[1]; serum sample PL411s, 5% DMSO",32.5 pmol/L
same,Gastrin 17 concentration,"[1]; serum sample PL420b, 0% DMSO",24.1 pmol/L
same,Gastrin 17 concentration,"[1]; serum sample PL420b, 5% DMSO",20.1 pmol/L
same,Gastrin 17 concentration,"[1]; serum sample PL426s, 0% DMSO",1.1 pmol/L
same,Gastrin 17 concentration,"[1]; serum sample PL426s, 5% DMSO",1.9 pmol/L
same,Gastrin 17 concentration,"[1]; serum sample PL438s, 0% DMSO",9.3 pmol/L
same,Gastrin 17 concentration,"[1]; serum sample PL438s, 5% DMSO",9.8 pmol/L
same,Gastrin 17 concentration,"[1]; serum sample PL439s, 0% DMSO",7.4 pmol/L
same,Gastrin 17 concentration,"[1]; serum sample PL439s, 5% DMSO",8.5 pmol/L
same,Gastrin 17 concentration,"[1]; serum sample PL447b, 0% DMSO",18.2 pmol/L
same,Gastrin 17 concentration,"[1]; serum sample PL447b, 5% DMSO",21.7 pmol/L
same,Gastrin 17 concentration,"[1]; serum sample PL454s, 0% DMSO",4.4 pmol/L
same,Gastrin 17 concentration,"[1]; serum sample PL454s, 5% DMSO",5.6 pmol/L
same,Gastrin 17 concentration,"[1]; serum sample PL455b, 0% DMSO",15.6 pmol/L
same,Gastrin 17 concentration,"[1]; serum sample PL455b, 5% DMSO",17.6 pmol/L
same,Gastrin 17 concentration,"[1]; serum sample PL457b, 0% DMSO",3.3 pmol/L
same,Gastrin 17 concentration,"[1]; serum sample PL457b, 5% DMSO",6.0 pmol/L
same,Gastrin 17 concentration,"[1]; serum sample PL458s, 0% DMSO",5.4 pmol/L
same,Gastrin 17 concentration,"[1]; serum sample PL458s, 5% DMSO",2.2 pmol/L
same,activity in samples with added 5% (vol./vol.) of DMSO,[1]; serum samples,generally retained activity
same,state of the analyte in a serum sample after a day,"[2]; after a day, refrigerating conditions",degraded completely
same,time after which the concentration in a serum sample starts to decrease clearly,[2]; no stabilizer,three
same,time for which gastrin-17 was preserved,[3],at least three
same,"gastrin-17 concentration, Avg.","[4]; EDTA-plasma sample PL459S, 0% DMSO",4.1 pmol/L
same,gastrin-17 concentration,"[4]; EDTA-plasma sample PL459S, 0% DMSO, day 0",8.5 pmol/L
same,gastrin-17 concentration,"[4]; EDTA-plasma sample PL459S, 0% DMSO, day 1",3.6 pmol/L
same,gastrin-17 concentration,"[4]; EDTA-plasma sample PL459S, 0% DMSO, day 2",2.7 pmol/L
same,gastrin-17 concentration,"[4]; EDTA-plasma sample PL459S, 0% DMSO, day 3",1.5 pmol/L
same,"gastrin-17 concentration, Avg.","[4]; EDTA-plasma sample PL459S, 5% DMSO",5.6 pmol/L
same,gastrin-17 concentration,"[4]; EDTA-plasma sample PL459S, 5% DMSO, day 0",6.3 pmol/L
same,gastrin-17 concentration,"[4]; EDTA-plasma sample PL459S, 5% DMSO, day 1",5.4 pmol/L
same,gastrin-17 concentration,"[4]; EDTA-plasma sample PL459S, 5% DMSO, day 2",5.2 pmol/L
same,gastrin-17 concentration,"[4]; EDTA-plasma sample PL459S, 5% DMSO, day 3",5.4 pmol/L
same,"gastrin-17 concentration, Avg.","[4]; EDTA-plasma sample PL460s, 0% DMSO",6.0 pmol/L
same,gastrin-17 concentration,"[4]; EDTA-plasma sample PL460s, 0% DMSO, day 0",7.9 pmol/L
same,gastrin-17 concentration,"[4]; EDTA-plasma sample PL460s, 0% DMSO, day 1",5.8 pmol/L
same,gastrin-17 concentration,"[4]; EDTA-plasma sample PL460s, 0% DMSO, day 2",5.8 pmol/L
same,gastrin-17 concentration,"[4]; EDTA-plasma sample PL460s, 0% DMSO, day 3",4.6 pmol/L
same,"gastrin-17 concentration, Avg.","[4]; EDTA-plasma sample PL460s, 5% DMSO",6.0 pmol/L
same,gastrin-17 concentration,"[4]; EDTA-plasma sample PL460s, 5% DMSO, day 0",6.3 pmol/L
same,gastrin-17 concentration,"[4]; EDTA-plasma sample PL460s, 5% DMSO, day 1",5.5 pmol/L
same,gastrin-17 concentration,"[4]; EDTA-plasma sample PL460s, 5% DMSO, day 2",6.1 pmol/L
same,gastrin-17 concentration,"[4]; EDTA-plasma sample PL460s, 5% DMSO, day 3",6.0 pmol/L
same,"gastrin-17 concentration, Avg.","[4]; EDTA-plasma sample PL461s, 0% DMSO",12.4 pmol/L
same,gastrin-17 concentration,"[4]; EDTA-plasma sample PL461s, 0% DMSO, day 0",26.0 pmol/L
same,gastrin-17 concentration,"[4]; EDTA-plasma sample PL461s, 0% DMSO, day 1",8.7 pmol/L
same,gastrin-17 concentration,"[4]; EDTA-plasma sample PL461s, 0% DMSO, day 2",8.5 pmol/L
same,gastrin-17 concentration,"[4]; EDTA-plasma sample PL461s, 0% DMSO, day 3",6.1 pmol/L
same,"gastrin-17 concentration, Avg.","[4]; EDTA-plasma sample PL461s, 5% DMSO",21.8 pmol/L
same,gastrin-17 concentration,"[4]; EDTA-plasma sample PL461s, 5% DMSO, day 0",24.3 pmol/L
same,gastrin-17 concentration,"[4]; EDTA-plasma sample PL461s, 5% DMSO, day 1",21.6 pmol/L
same,gastrin-17 concentration,"[4]; EDTA-plasma sample PL461s, 5% DMSO, day 2",19.9 pmol/L
same,gastrin-17 concentration,"[4]; EDTA-plasma sample PL461s, 5% DMSO, day 3",21.2 pmol/L
same,Gastrin 17 concentration,"[5]; EDTA-plasma sample PL466s, 0% DMSO, day 0",7.6 pmol/L
same,Gastrin 17 concentration,"[5]; EDTA-plasma sample PL466s, 0% DMSO, day 3",1.6 pmol/L
same,Gastrin 17 concentration,"[5]; EDTA-plasma sample PL466s, 5% DMSO, day 0",7.8 pmol/L
same,Gastrin 17 concentration,"[5]; EDTA-plasma sample PL466s, 5% DMSO, day 3",6.9 pmol/L
same,Gastrin 17 concentration,"[5]; EDTA-plasma sample PL467s, 0% DMSO, day 0",5.3 pmol/L
same,Gastrin 17 concentration,"[5]; EDTA-plasma sample PL467s, 0% DMSO, day 3",2.9 pmol/L
same,Gastrin 17 concentration,"[5]; EDTA-plasma sample PL467s, 5% DMSO, day 0",4.4 pmol/L
same,Gastrin 17 concentration,"[5]; EDTA-plasma sample PL467s, 5% DMSO, day 3",4.5 pmol/L
same,Gastrin 17 concentration,"[5]; EDTA-plasma sample PL471s, 0% DMSO, day 0",1.3 pmol/L
same,Gastrin 17 concentration,"[5]; EDTA-plasma sample PL471s, 0% DMSO, day 3",0.2 pmol/L
same,Gastrin 17 concentration,"[5]; EDTA-plasma sample PL471s, 5% DMSO, day 0",1.7 pmol/L
same,Gastrin 17 concentration,"[5]; EDTA-plasma sample PL471s, 5% DMSO, day 3",1.4 pmol/L
same,Gastrin 17 concentration,"[5]; EDTA-plasma sample PL472s, 0% DMSO, day 0",20 pmol/L
same,Gastrin 17 concentration,"[5]; EDTA-plasma sample PL472s, 0% DMSO, day 3",2.9 pmol/L
same,Gastrin 17 concentration,"[5]; EDTA-plasma sample PL472s, 5% DMSO, day 0",21 pmol/L
same,Gastrin 17 concentration,"[5]; EDTA-plasma sample PL472s, 5% DMSO, day 3",14.3 pmol/L
same,Gastrin 17 concentration,"[5]; EDTA-plasma sample PL473s, 0% DMSO, day 0",3.7 pmol/L
same,Gastrin 17 concentration,"[5]; EDTA-plasma sample PL473s, 0% DMSO, day 3",0.6 pmol/L
same,Gastrin 17 concentration,"[5]; EDTA-plasma sample PL473s, 5% DMSO, day 0",3.8 pmol/L
same,Gastrin 17 concentration,"[5]; EDTA-plasma sample PL473s, 5% DMSO, day 3",3.4 pmol/L

# From patent US20070243558A1, “Peptide Stabilization” (priority 2004, published 2007)
